One block for each compound: values may come before it.
Assays:
[1] = biological target: Calcium/calmodulin-dependent protein kinase kinase 1 (Homo sapiens) (UniProt Q8N5S9); assay: Selectivity interaction (KinomeScan (DiscoverX)) EUB0001079a CAMKK1; settings: at 1 µM
[2] = biological target: TGF-beta receptor type-2 (Homo sapiens) (UniProt P37173); settings: at 10 µM
[3] = biological target: T1, Serine/threonine-protein kinase greatwall (Homo sapiens) (UniProt Q96GX5); assay: Selectivity interaction (ActivX KiNativ screen (kinase selectivity in THP-1 cell lysates)) EUB0000639a MASTL; type: subcellular; settings: lysate, at 0.01 µM
T1 sequence (whole entry): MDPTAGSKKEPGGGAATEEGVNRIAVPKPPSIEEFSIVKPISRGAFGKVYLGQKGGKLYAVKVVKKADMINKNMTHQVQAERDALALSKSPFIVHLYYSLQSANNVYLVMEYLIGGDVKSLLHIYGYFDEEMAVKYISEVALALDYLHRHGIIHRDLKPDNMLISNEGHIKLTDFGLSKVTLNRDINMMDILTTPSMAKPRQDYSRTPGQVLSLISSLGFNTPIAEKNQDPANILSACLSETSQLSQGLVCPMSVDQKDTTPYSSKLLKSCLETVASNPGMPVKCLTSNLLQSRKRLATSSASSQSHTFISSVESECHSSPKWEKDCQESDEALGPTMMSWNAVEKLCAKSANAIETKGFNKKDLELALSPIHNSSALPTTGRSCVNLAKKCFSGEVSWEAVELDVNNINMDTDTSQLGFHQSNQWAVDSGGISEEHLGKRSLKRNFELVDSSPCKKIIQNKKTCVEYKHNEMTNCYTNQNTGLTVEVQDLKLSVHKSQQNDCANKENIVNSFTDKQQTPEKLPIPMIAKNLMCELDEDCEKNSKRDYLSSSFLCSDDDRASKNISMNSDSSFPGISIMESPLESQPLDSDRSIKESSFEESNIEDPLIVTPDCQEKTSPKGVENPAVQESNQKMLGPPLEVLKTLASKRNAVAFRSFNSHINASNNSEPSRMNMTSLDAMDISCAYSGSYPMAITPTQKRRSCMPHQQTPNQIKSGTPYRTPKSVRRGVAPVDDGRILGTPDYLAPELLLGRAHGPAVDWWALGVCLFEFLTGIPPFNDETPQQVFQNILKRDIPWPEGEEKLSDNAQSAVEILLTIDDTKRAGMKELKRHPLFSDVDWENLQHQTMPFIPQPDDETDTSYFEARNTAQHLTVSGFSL

[4] = biological target: Serine/threonine-protein kinase PAK 2 (Homo sapiens) (UniProt Q13177); assay: Selectivity interaction (Kinase panel (Invitrogen)) EUB0000639a PAK2; settings: at 200 nM
Insulin receptor = Insulin receptor (Homo sapiens, UniProt P06213); assay: Selectivity interaction (KinomeScan (DiscoverX)) EUB0000666a INSR; settings: at 10 µM
[5] = biological target: Tyrosine-protein kinase Srms (Homo sapiens) (UniProt Q9H3Y6); assay: Selectivity interaction (Kinase panel (Z-LYTE Assay)) EUB0001632a SRMS; settings: at 10 µM
[6] = biological target: T2, Serine/threonine-protein kinase ULK2 (Homo sapiens) (UniProt Q8IYT8); assay: Selectivity interaction (KinomeScan (DiscoverX)) EUB0000695a ULK2; settings: at 100 nM
T2 sequence (whole entry): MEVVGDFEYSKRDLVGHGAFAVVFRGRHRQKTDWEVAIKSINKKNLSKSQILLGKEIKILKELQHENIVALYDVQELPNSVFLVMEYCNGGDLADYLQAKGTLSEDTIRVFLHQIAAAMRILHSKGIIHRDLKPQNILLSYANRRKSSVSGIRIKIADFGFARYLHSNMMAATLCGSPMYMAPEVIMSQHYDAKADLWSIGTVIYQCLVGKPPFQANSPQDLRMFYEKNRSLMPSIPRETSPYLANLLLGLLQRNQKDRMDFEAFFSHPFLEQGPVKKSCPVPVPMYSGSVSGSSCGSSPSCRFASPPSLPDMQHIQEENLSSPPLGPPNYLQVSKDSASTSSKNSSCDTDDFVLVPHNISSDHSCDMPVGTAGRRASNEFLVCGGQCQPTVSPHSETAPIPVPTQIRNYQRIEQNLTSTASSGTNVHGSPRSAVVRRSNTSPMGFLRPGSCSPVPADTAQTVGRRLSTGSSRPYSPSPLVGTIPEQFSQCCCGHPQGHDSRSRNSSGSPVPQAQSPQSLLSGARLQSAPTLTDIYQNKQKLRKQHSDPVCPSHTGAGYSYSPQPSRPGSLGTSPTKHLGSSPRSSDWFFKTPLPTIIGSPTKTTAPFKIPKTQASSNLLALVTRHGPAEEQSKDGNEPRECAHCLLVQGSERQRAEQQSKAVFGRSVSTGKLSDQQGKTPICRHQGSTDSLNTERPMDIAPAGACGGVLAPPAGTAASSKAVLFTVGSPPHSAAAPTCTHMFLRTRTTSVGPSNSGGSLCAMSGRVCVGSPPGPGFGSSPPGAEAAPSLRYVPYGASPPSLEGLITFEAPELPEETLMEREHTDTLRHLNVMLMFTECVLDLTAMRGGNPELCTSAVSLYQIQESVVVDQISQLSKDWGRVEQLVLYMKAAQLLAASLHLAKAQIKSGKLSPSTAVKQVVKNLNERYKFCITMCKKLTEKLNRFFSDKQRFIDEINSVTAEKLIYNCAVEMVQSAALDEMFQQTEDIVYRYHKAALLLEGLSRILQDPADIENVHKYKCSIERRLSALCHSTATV

Sequence of TGF-beta receptor type-2 (Homo sapiens) (P37173 whole entry): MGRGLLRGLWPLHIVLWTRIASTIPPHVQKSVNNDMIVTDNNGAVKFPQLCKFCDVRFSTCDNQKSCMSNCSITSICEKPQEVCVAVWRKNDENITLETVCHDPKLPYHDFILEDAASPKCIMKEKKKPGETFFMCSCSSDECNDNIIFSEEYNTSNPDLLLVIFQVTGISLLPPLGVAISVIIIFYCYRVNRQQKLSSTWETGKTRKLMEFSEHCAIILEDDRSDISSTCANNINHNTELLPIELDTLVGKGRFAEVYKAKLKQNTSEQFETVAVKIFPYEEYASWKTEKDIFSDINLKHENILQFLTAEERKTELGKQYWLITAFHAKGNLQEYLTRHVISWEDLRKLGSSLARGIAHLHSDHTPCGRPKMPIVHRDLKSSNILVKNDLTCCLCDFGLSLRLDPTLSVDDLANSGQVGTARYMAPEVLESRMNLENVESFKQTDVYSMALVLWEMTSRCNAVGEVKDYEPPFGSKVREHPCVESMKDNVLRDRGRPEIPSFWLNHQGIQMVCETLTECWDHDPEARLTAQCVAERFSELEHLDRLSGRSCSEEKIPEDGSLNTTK
Sequence of Serine/threonine-protein kinase PAK 2 (Homo sapiens) (Q13177 whole entry): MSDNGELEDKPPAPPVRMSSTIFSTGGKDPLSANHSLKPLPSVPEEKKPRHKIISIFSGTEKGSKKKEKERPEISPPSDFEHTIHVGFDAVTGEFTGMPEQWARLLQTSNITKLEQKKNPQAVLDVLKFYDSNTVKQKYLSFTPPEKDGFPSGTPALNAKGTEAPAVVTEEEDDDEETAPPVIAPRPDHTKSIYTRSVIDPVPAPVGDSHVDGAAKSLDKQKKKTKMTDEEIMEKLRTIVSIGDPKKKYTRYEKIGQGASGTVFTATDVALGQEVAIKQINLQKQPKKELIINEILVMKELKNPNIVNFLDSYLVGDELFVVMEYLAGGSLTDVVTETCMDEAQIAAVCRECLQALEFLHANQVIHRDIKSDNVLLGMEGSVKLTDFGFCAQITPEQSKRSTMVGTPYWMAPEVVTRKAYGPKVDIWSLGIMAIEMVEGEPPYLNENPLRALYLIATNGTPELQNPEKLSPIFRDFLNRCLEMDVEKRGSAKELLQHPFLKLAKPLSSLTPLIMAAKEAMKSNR
Sequence of Insulin receptor (P06213 28-758 limits assumed): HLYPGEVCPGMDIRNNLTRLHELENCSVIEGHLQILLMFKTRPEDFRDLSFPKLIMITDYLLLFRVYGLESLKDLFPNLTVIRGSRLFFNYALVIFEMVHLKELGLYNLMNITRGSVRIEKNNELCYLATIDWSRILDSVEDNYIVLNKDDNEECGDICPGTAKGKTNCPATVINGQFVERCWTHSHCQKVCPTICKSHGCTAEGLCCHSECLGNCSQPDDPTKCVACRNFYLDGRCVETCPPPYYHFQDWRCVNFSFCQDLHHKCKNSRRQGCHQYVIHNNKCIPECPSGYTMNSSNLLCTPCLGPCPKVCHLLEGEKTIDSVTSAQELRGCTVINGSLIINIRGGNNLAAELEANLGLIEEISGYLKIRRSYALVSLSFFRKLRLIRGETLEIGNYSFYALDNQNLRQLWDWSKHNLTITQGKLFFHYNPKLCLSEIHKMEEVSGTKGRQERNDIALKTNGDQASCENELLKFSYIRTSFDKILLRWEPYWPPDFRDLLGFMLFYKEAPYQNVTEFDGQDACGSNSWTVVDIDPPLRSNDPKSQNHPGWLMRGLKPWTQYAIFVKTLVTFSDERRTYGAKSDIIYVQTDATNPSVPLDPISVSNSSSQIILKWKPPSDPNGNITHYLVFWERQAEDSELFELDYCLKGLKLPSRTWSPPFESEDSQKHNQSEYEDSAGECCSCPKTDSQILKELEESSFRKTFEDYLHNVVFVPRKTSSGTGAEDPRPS
Sequence of Insulin receptor (P06213 763-1382 limits assumed): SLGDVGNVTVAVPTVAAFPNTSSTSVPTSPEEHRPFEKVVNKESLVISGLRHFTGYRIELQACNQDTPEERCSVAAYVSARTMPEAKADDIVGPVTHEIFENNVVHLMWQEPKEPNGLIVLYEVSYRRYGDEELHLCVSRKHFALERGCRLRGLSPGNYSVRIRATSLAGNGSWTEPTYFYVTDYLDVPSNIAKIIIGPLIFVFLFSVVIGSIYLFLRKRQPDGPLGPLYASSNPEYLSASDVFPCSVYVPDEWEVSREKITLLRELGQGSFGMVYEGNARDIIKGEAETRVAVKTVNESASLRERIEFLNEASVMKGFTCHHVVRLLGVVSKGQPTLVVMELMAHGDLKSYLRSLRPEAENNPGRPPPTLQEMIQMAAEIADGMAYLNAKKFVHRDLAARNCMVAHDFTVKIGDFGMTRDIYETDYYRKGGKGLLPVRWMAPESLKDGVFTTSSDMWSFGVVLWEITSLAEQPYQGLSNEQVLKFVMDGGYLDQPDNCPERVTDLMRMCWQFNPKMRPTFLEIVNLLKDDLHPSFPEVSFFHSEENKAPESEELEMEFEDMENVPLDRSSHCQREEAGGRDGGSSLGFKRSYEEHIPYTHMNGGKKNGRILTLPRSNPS
Sequence of Calcium/calmodulin-dependent protein kinase kinase 1 (Homo sapiens) (Q8N5S9 whole entry, looked up): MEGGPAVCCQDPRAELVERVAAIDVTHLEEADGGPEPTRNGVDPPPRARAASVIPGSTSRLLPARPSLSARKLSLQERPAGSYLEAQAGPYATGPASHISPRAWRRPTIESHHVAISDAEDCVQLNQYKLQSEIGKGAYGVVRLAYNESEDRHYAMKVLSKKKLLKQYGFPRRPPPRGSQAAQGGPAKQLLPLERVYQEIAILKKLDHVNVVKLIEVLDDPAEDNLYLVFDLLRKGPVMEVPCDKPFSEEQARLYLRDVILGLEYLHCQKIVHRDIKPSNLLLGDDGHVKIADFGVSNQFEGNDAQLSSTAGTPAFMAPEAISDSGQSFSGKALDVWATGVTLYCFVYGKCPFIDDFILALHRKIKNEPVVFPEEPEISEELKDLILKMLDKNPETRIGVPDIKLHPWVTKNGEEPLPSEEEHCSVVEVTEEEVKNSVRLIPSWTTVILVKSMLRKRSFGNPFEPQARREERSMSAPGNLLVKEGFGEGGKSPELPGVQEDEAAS
Sequence of Tyrosine-protein kinase Srms (Homo sapiens) (Q9H3Y6 whole entry): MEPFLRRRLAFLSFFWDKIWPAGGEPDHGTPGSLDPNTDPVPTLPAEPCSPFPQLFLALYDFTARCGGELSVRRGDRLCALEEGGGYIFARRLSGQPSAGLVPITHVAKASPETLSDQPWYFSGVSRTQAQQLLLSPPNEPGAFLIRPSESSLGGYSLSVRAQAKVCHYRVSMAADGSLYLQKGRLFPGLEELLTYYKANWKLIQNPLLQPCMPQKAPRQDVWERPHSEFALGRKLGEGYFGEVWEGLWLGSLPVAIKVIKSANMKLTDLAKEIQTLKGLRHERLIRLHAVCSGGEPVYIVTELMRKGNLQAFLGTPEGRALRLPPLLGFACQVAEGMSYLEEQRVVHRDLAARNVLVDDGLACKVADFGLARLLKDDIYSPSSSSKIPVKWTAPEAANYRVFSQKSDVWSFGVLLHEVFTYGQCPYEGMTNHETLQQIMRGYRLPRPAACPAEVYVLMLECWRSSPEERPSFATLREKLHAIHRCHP

Compound: Nc1cnc(N2CCc3cc(S(=O)(=O)Nc4c(F)cc(Cl)cc4F)cc(N4CCCC4=O)c32)nc1 [TP-020n]
- % of control [1]: 100%

Compound: COCC(=O)NC/C=C/c1ccc2ncnc(Nc3ccc(Oc4ccc(C)nc4)c(C)c3)c2c1 [CP-724714]
- % of control [2]: 94%

- % of inhibition [3]: 16.1%
- % of inhibition [4]: 3.6%
Compound: CC[C@@H]1[C@H](F)C(=O)N[C@@H]1COc1nccc2cc(C(N)=O)c(OC)cc12 [ZIMLOVISERTIB]

Compound: O=C(NOC[C@H](O)CO)c1ccc(F)c(F)c1Nc1ccc(I)cc1F
- % of control (Insulin receptor): 92%

- % of control [5]: -3.87%
Compound: Cn1cc(-n2cnc3c(NCc4nc5cc(Cl)c(Cl)cc5[nH]4)nc(N4CCOCC4)nc32)cn1

Compound: Cc1cc(F)c(C(=O)Nc2cccc(-c3nncn3C(C)C)n2)cc1-n1cnc(C2CC2)c1
- % of control [6]: 91%

From ChEMBL document CHEMBL5465560, “Selectivity Literature for EUbOPEN Chemogenomic Library” (2024)
